Tests used:
Test in all cases: Field trial, post-emergence weed control
Format in all cases: in vivo
Avena fatua = system: Avena fatua
Procedure: (§1) In the following examples, synergism for two-way combinations is determined by the Colby^1 method, i.e. the expected (or predicted) response of the combination is calculated by taking the product of the observed response for each individual component of the combination when applied alone divided by 100 and subtracting this value from the sum of the observed response for each component when applied alone. Synergism of the combination is then determined by comparing the observed response of the combination to the expected (or predicted) response as calculated from the observed responses of each individual component alone. If the observed response of the combination is greater than the expected (or predicted) response then the combination is said to be synergistic and falls within the definition of synergistic effect as previously defined.
(§2) In similar manner for the case of three-way combination, C3; is composed of component X plus component Y plus […] and Obs. designates the observed response of the combination C3. [formula]
(§3) Grassy and broadleaved weeds are either seeded perpendicular to the direction of the crop or broadcast in early to mid-May. The crop is seeded after the weed seed. Row width is 18 cm. The seed is drilled in with a Roger's 1.8 m width drill to a depth of 5 cm.
(§4) All trials employ standard accepted weed science procedures. Applications are made with a Roger's CO2-powered shrouded sprayer. Test design is a modified randomized complete block design with four replications. All applications are made post-emergence to the weeds and crop.
(§5) The test solutions are prepared by tank-mixing sufficient quantities of aqueous solutions and/or dispersions of the test compounds.
(§6) The treated plots are examined at intervals during the growing season and rated for percent control of weeds and crop injury. The data listed is an average of the replicates for that treatment. The Colby method of analysis is used to determine the resultant biological effect of the combination treatment as compared to the biological effect of each component when applied alone.

Brassica napus = system: Brassica napus
Procedure: as §1, §2, §3, §4, §5, §6

Chenopodium album = system: Chenopodium album
Procedure: as §1, §2, §3, §4, §5, §6

Galeopsis tetrahit = system: Galeopsis tetrahit
Procedure: as §1, §2, §3, §4, §5, §6

Galium aparine = system: Galium aparine
Procedure: as §1, §2, §3, §4, §5, §6

Kochia scoparia = system: Kochia scoparia
Procedure: as §1, §2, §3, §4, §5, §6

[1] = system: Polygonum (smartweed) spp.
Procedure: as §1, §2, §3, §4, §5, §6

Polygonum convolvulus = system: Polygonum convolvulus
Procedure: as §1, §2, §3, §4, §5, §6

Salsola kali = system: Salsola kali
Procedure: as §1, §2, §3, §4, §5, §6

Setaria viridis = system: Setaria viridis
Procedure: as §1, §2, §3, §4, §5, §6

Sinapis arvensis = system: Sinapis arvensis
Procedure: as §1, §2, §3, §4, §5, §6

Stellaria media = system: Stellaria media
Procedure: as §1, §2, §3, §4, §5, §6

Vaccaria pyramaidata = system: Vaccaria pyramaidata
Procedure: as §1, §2, §3, §4, §5, §6

[2] = system: Brassica napus (imidazolinone tolerant)
Procedure: Synergism of the combination is then determined by comparing the observed response of the combination to the expected (or predicted) response as calculated from the observed responses of each individual component alone. If the observed response of the combination is greater than the expected (or predicted) response then the combination is said to be synergistic and falls within the definition of synergistic effect as previously defined.
as §2, §3, §4, §5, §6

Amaranthus retroflexus = system: Amaranthus retroflexus
Procedure: as §1, §3, §4, §5, §6

`O=C(O)COc1ccc(Cl)cc1Cl` [2,4-D, 2,4-dichlorophenoxyacetic acid] was tested, and the “Percent Control” value (Avena fatua; 280 g/ha) was 2%, the “Percent Control” value (Brassica napus; 280 g/ha) was 93% and the “Percent Control” value (Chenopodium album; 280 g/ha) was 91%. For the same compound, the “Percent Control” value (Galeopsis tetrahit; 280 g/ha) was 2%, the “Percent Control” value (Galium aparine; 280 g/ha) was 43% and the “Percent Control” value (Kochia scoparia; 280 g/ha) was 52%. For the same compound, the “Percent Control” value ([1]; 280 g/ha) was 53%, the “Percent Control” value (Polygonum convolvulus; 280 g/ha) was 48% and the “Percent Control” value (Salsola kali; 280 g/ha) was 35%. The “Percent Control” value (Setaria viridis; 280 g/ha) was 0%, the “Percent Control” value (Sinapis arvensis; 280 g/ha) was 92% and the “Percent Control” value (Stellaria media; 280 g/ha) was 10%. The “Percent Control” value (Vaccaria pyramaidata; 280 g/ha) was 51% and the “Percent Control” value ([2]; 280 g/ha) was 94%.

`O=C(O)c1nc(Cl)ccc1Cl` [clopyralid] was tested, and the “Percent Control” value (Brassica napus; 150 g/ha) was 12%, the “Percent Control” value (Chenopodium album; 150 g/ha) was 51% and the “Percent Control” value (Galium aparine; 150 g/ha) was 0%. The “Percent Control” value (Sinapis arvensis; 150 g/ha) was 16%, the “Percent Control” value (Stellaria media; 150 g/ha) was 10% and the “Percent Control” value ([2]; 150 g/ha) was 8%.

For imazamethabenz methyl, the “Percent Control” value (Avena fatua; 400 g/ha) was 88%, the “Percent Control” value (Chenopodium album; 400 g/ha) was 18% and the “Percent Control” value (Galeopsis tetrahit; 400 g/ha) was 4%. For the same compound, the “Percent Control” value (Galium aparine; 400 g/ha) was 48%, the “Percent Control” value (Kochia scoparia; 400 g/ha) was 31% and the “Percent Control” value ([1]; 400 g/ha) was 76%. For the same compound, the “Percent Control” value (Salsola kali; 400 g/ha) was 9%, the “Percent Control” value (Setaria viridis; 400 g/ha) was 10% and the “Percent Control” value (Stellaria media; 400 g/ha) was 8%. For the same compound, the “Percent Control” value (Vaccaria pyramaidata; 400 g/ha) was 20% and the “Percent Control” value ([2]; 400 g/ha) was 0%.

With `CCOC(=O)[C@@H](C)Oc1ccc(Oc2nc3ccc(Cl)cc3o2)cc1` [fenoxaprop-p-ethyl] the “Percent Control” value (Brassica napus; 72 g/ha) was 0%, the “Percent Control” value (Chenopodium album; 72 g/ha) was 0% and the “Percent Control” value (Polygonum convolvulus; 72 g/ha) was 0%. The “Percent Control” value (Setaria viridis; 72 g/ha) was 98%, the “Percent Control” value (Sinapis arvensis; 72 g/ha) was 0% and the “Percent Control” value (Vaccaria pyramaidata; 72 g/ha) was 0%. The “Percent Control” value ([2]; 72 g/ha) was 0% and the “Percent Control” value (Amaranthus retroflexus; 72 g/ha) was 9%.

In the case of `CCO/N=C(\CC)C1=C(O)CC(c2c(C)cc(C)cc2C)CC1=O` (centres unmarked) [tralkoxydim], the “Percent Control” value (Avena fatua; 200 g/ha) is reported as 97%, the “Percent Control” value (Brassica napus; 200 g/ha) is reported as 0% and the “Percent Control” value (Chenopodium album; 200 g/ha) is reported as 0%. For the same compound, the “Percent Control” value (Polygonum convolvulus; 200 g/ha) was 0%, the “Percent Control” value (Sinapis arvensis; 200 g/ha) was 0% and the “Percent Control” value (Vaccaria pyramaidata; 200 g/ha) was 0%. The “Percent Control” value ([2]; 200 g/ha) was 0% and the “Percent Control” value (Amaranthus retroflexus; 200 g/ha) was 1%.

`O=C(Nc1ccc(F)cc1)c1cccc(Oc2cccc(C(F)(F)F)c2)n1` [picolinafen] was tested, and the “Percent Control” value (Avena fatua; 50 g/ha) was 5%, the “Percent Control” value (Brassica napus; 50 g/ha) was 70% and the “Percent Control” value (Chenopodium album; 50 g/ha) was 57%. For the same compound, the “Percent Control” value (Galeopsis tetrahit; 50 g/ha) was 59%, the “Percent Control” value (Galium aparine; 50 g/ha) was 28% and the “Percent Control” value (Kochia scoparia; 50 g/ha) was 59%. The “Percent Control” value ([1]; 50 g/ha) was 26%, the “Percent Control” value (Polygonum convolvulus; 50 g/ha) was 54% and the “Percent Control” value (Salsola kali; 50 g/ha) was 56%. The “Percent Control” value (Setaria viridis; 50 g/ha) was 14%, the “Percent Control” value (Sinapis arvensis; 50 g/ha) was 78% and the “Percent Control” value (Stellaria media; 50 g/ha) was 64%. The “Percent Control” value (Vaccaria pyramaidata; 50 g/ha) was 63%, the “Percent Control” value ([2]; 50 g/ha) was 65% and the “Percent Control” value (Amaranthus retroflexus; 50 g/ha) was 90%.

Source: patent US6451733B1, “Synergistic herbicidal methods and compositions” (BASF Aktiengesellschaft, priority 1999, dated 2002)
